pIC50: −log10 of the molar value.
Assay: Antagonist activity at CCR5 in IL-10 stimulated human PBMC cells assessed as MIP-1beta induced chemotaxis

| Structure (SMILES) | pIC50 |
| --- | --- |
| CO[C@@H]1Cc2cc(C(F)(F)F)ccc2[C@H]1N1CCN(C2(C)CCN(C(=O)c3c(C)ncnc3C)CC2)C[C@@H]1C [5-[(4-(3S)-4-[(1R,2R)-2-methoxy-5-(trifluoromethyl)-2,3-dihydro-1H-inden-1-yl]-3-methylpiperazin-1-yl-4-methylpiperidin-1-yl)carbonyl]-4,6-dimethylpyrimidine] | 8.46 |
| Cc1ncnc(C)c1C(=O)N1CCC(C)(N2CCN(C3CCc4cc(C(F)(F)F)ccc43)[C@@H](C)C2)CC1 (stereo partly drawn) [4,6-Dimethyl-5-[(4-methyl-4-{(3S)-3-methyl-4-[5-(trifluoromethyl)-2,3-dihydro-1H-inden-1-yl]piperazin-1-yl}piperidin-1-yl)carbonyl]pyrimidine] | 8.92 |
| Cc1ncnc(C)c1C(=O)N1CCC(C)(N2CCN(C3CCc4cc(Br)ccc43)[C@@H](C)C2)CC1 (stereo partly drawn) [5-({4-[(3S)-4-(5-Bromo-2,3-dihydro-1H-inden-1-yl)-3-methylpiperazin-1-yl]-4-methylpiperidin-1-yl}carbonyl)-4,6-dimethylpyrimidine] | 8.96 |
